Assay results from patent US11033547B2, “Carboxamide-pyrimidine derivatives as SHP2 antagonists” (Merck Patent GmbH, priority 2019, dated 2021).
Like-named read-outs stand apart in the source and are kept apart here.

Experiments:
[1] = target: Full length SHP2 protein (Recombinant Human SHP-2) (Homo sapiens, UniProt Q06124); test: SHP2 biochemical assay (DiFMUP substrate, activating peptide IRSI_2pY); settings: DiFMUP substrate, activating peptide IRSI_2pY, 60 min at RT; read-out: SHP-2 Biochemical assay IC50
Experimental: The inhibition of SHP2 by compounds of the invention was monitored using the surrogate substrate DiFMUP after protein activation by a peptide bearing two appropriately spaced phosphotyrosine. […] The generation of the DiFMU product by activated SHP2 was monitored through Fluorescence measurement with a PerkinElmer Envision reader.
The inhibitor dose response curves were analyzed with Genedata Screener.

[2] = tested on: pERK level in MDA-MB-468 cells; test: p-Erk cellular assay in MDA-MB-468 (Mesoscale); type: cell-based; settings: 2 h incubation, read-out: pERK1/2 in MDA-MB-468 IC50
Experimental: (§1) p-Erk Cellular Assay in MDA-MB-468 and KYSE520:
(§2) The effect of SHP2 inhibitors on pERK level was assessed using phospho-specific antibody using Mesoscale quantification platform. For measuring change in pERK levels using mesoscale, 30,000 cells of MDA MB468 and KYSE520 cells were plated in 96-well tissue culture treated plate in 175 ul volume of media. After an overnight incubation at 37° C., various SHP2 inhibitors were added in different concentration to each well maintaining duplicate wells across plates and incubated with compounds for 2 h at 37° C. followed by a wash with ice cold PBS buffer. The cells were then lysed in lysis buffer and processed and analyzed for p-ERK/ERK as per manufacturer's instructions (Mesoscale discovery, cat No. K15107D-3).

[3] = tested on: pERK level in KYSE520 cells; test: p-Erk cellular assay in KYSE520 (Mesoscale); type: cell-based; settings: 2 h incubation, read-out: pERK1/2 in KYSE520 IC50
Experimental: as §1, §2

IC50 [1] [nM]	IC50 ([2]; Homo sapiens, MDA-MB-468, 2 h) [nM]	IC50 ([3]; Homo sapiens, KYSE-520, 2 h) [nM]	IC50 [2] [nM]	Molecule	IC50 [3] [nM]
310	908	2990	–	CC1(CN)CCN(c2nc(N)c(-c3cccc(Cl)c3Cl)c(C(N)=O)n2)CC1 [Compound 41, 6-amino-2-[4-(aminomethyl)-4-methylpiperidin-1-yl]-5-(2,3-dichlorophenyl)pyrimidine-4-carboxamide]	–
500	–	12800	–	NC[C@@]12CCCC[C@@H]1CN(c1nc(N)c(-c3cccc(Cl)c3Cl)c(C(N)=O)n1)C2 (single isomer, unassigned) [Compound 100]	–
–	–	993	–	Cc1nc(N2CCC3(CC2)CC(F)(F)C[C@H]3N)nc(C(N)=O)c1-c1cccc(Cl)c1Cl (single isomer, unassigned) [Compound 96]	–
410	–	4250	–	Cc1nc(N[C@@H]2CCC[C@H](N)C2)nc(C(N)=O)c1-c1cccc(Cl)c1Cl (atropisomer, axis not shown; (M)) [Compound 88, (4M)-2-{[(1R,3S)-3-aminocyclohexyl]amino}-5-(2,3-dichlorophenyl)-6-methylpyrimidine-4-carboxamide]	–
120	683	2540	–	NC(=O)c1nc(N2CCCC(N)CC2)nc(N)c1-c1cccc(Cl)c1Cl (centres unmarked) [Compound 49, 6-amino-2-(4-aminoazepan-1-yl)-5-(2,3-dichlorophenyl)-pyrimidine-4-carboxamide]	–
49	395	1200	–	NC[C@@]12CCC[C@@H]1CN(c1nc(N)c(-c3cccc(Cl)c3Cl)c(C(N)=O)n1)C2 (atropisomer, axis not shown; (P)) [Compound 98, (5P)-2-[(3aR,6aS)-3a-(aminomethyl)octahydrocyclopenta[c]pyrrol-2-yl]-6-amino-5-(2,3-dichlorophenyl)pyrimidine-4-carboxamide]	–
66	670	596	–	CN(c1nc(N)c(-c2cccc(Cl)c2Cl)c(C(N)=O)n1)[C@H]1CC[C@H](N)CC1 [Compound 112, 6-Amino-2-[(4-amino-cyclohexyl)-methyl-amino]-5-(2,3-dichloro-phenyl)-pyrimidine-4-carboxylic acid amide]	–
200	2180	1510	–	NC(=O)c1nc(N2CCC3(CC2)CC(F)(F)C[C@H]3N)nc(N)c1-c1cccc(Cl)c1Cl [Compound 8, 6-amino-2-[(1R)-1-amino-3,3-difluoro-8-azaspiro[4.5]decan-8-yl]-5-(2,3-dichlorophenyl)pyrimidine-4-carboxamide]	–
45	316	284	–	Cc1nc(N2CCC3(CCC[C@H]3N)CC2)nc(C(N)=O)c1-c1cccc(Cl)c1Cl (single isomer, unassigned) [Compound 114]	–
–	–	1140	516	CC1(N)CCN(c2nc(Cl)c(-c3cccc(Cl)c3Cl)c(C(N)=O)n2)CC1 [Compound 16, 2-(4-Amino-4-methyl-piperidin-1-yl)-6-chloro-5-(2,3-dichlorophenyl)-pyrimidine-4-carboxylic Acid Amide]	–
110	–	–	475	Cc1nc(N2CCC(C)(N)CC2)nc(C(N)=O)c1-c1cccc(Cl)c1Cl (atropisomer, axis not shown; (M)) [Compound 30, (4M)-2-(4-amino-4-methylpiperidin-1-yl)-5-(2,3-dichlorophenyl)-6-methylpyrimidine-4-carboxamide]	–
100	–	2600	–	CC1(N)CCCN(c2nc(N)c(-c3cccc(Cl)c3Cl)c(C(N)=O)n2)CC1 (centres unmarked) [Compound 91, 6-Amino-2-(4-amino-4-methyl-azepan-1-yl)-5-(2,3-dichloro-phenyl)-pyrimidine-4-carboxylic acid amide]	–
13000	–	–	–	Cc1nc(NC2CCC(CN)C2)nc(C(N)=O)c1-c1cccc(Cl)c1Cl (centres unmarked) [Compound 36, 2-(3-Aminomethyl-cyclopentylamino)-5-(2,3-dichloro-phenyl)-6-methyl-pyrimidine-4-carboxylic acid amide]	–
1000	–	–	–	Cc1nc(N2C[C@@H]3CCC(N)[C@H]3C2)nc(C(N)=O)c1-c1cccc(Cl)c1Cl (stereo partly drawn) [Compound 76, 2-((3aR,6aR)-4-Amino-hexahydro-cyclopenta-[c]pyrrol-2-yl)-5-(2,3-dichloro-phenyl)-6-methyl-pyrimidine-4-carboxylic acid amide]	–
960	–	–	–	Cc1nc(N2CC3CN(C)CC3C2)nc(C(N)=O)c1-c1cccc(Cl)c1Cl (centres unmarked) [Compound 56, 5-(2,3-Dichloro-phenyl)-6-methyl-2-(5-methyl-hexahydro-pyrrolo[3,4-c]pyrrol-2-yl)-pyrimidine-4-carboxylic acid amide]	–
87000	–	–	–	CC1(N)CCN(c2nc(Cl)c(-c3cccc(F)c3)c(C(N)=O)n2)CC1 [Compound 19, 2-(4-Amino-4-methyl-piperidin-1-yl)-6-chloro-5-(3-fluorophenyl)-pyrimidine-4-carboxylic Acid Amide]	–
2100	3080	–	–	CC1(N)CCN(c2nc(N)c(-c3cccc(Cl)c3)c(C(N)=O)n2)CC1 [Compound 2, 6-Amino-2-(4-amino-4-methyl-piperidin-1-yl)-5-(3-chlorophenyl)-pyrimidine-4-carboxylic Acid Amide]	–
10000	–	–	–	NC[C@]12CCC[C@H]1CN(c1nc(N)c(-c3cccc(Cl)c3Cl)c(C(N)=O)n1)C2 (single isomer, unassigned) [Compound 105]	–

The remaining lines, values behind:

Molecule	IC50 [1] [nM]	IC50 ([2]; Homo sapiens, MDA-MB-468, 2 h) [nM]	IC50 ([3]; Homo sapiens, KYSE-520, 2 h) [nM]	IC50 [2] [nM]	IC50 [3] [nM]
NCC1CN(c2nc(N)c(-c3cccc(Cl)c3Cl)c(C(N)=O)n2)CC12CCC2 (centres unmarked) [Compound 11, 6-amino-2-[8-(aminomethyl)-6-azaspiro[3.4]octan-6-yl]-5-(2,3-dichlorophenyl)pyrimidine-4-carboxamide]	590	1830	10200	–	–
CC1(N)CCN(c2nc(N)c(-c3cccc(Cl)c3Cl)c(C(=O)NO)n2)CC1 [Compound 20, 6-Amino-2-(4-amino-4-methyl-piperidin-1-yl)-5-(2,3-dichlorophenyl)-pyrimidine-4-carboxylic Acid Hydroxyamide]	150	492	8450	–	–
NC[C@]12CCC[C@H]1CN(c1nc(N)c(-c3cccc(Cl)c3Cl)c(C(N)=O)n1)C2 (single isomer, unassigned) [Compound 104]	120	–	2250	–	–
CC1(N)CCN(c2ncc(-c3cccc(Cl)c3Cl)c(C(N)=O)n2)CC1 [Compound 1, 2-(4-amino-4-methylpiperidin-1-yl)-5-(2,3-dichlorophenyl)pyrimidine-4-carboxamide]	–	12000	–	–	–
2-((S)-3-amino-3H-spiro[benzofuran-2,4′-piperidin]-1′-yl)-5-(2,3-dichlorophenyl)-6-methylpyrimidine-4-carboxamide [Compound 122]	17	–	–	–	48
Cc1nc(N2CCC(C)(N)CC2)nc(C(N)=O)c1-c1cccc(C(F)(F)F)c1Cl [Compound 111, 2-(4-Amino-4-methyl-piperidin-1-yl)-5-(2-chloro-3-trifluoromethyl-phenyl)-6-methyl-pyrimidine-4-carboxylic acid amide]	530	–	4700	–	–
C[C@@H]1OCC2(CCN(c3nc(N)c(-c4cccc(Cl)c4Cl)c(C(N)=O)n3)CC2)[C@@H]1N (single isomer, unassigned) [Compound 66]	–	503	863	–	–
NC(=O)c1nc(N2CCC3(CC2)CC(N)CCO3)nc(N)c1-c1cccc(Cl)c1Cl (centres unmarked) [Compound 38, 6-amino-2-{4-amino-1-oxa-9-azaspiro[5.5]undecan-9-yl}-5-(2,3-dichlorophenyl)pyrimidine-4-carboxamide]	7600	–	–	–	–
CC1(N)CCN(c2ncc(-c3cccc4[nH]cnc34)c(C(N)=O)n2)CC1 [Compound 60, 2-(4-Amino-4-methyl-piperidin-1-yl)-5-(1H-benzoimidazol-4-yl)-pyrimidine-4-carboxylic acid amide]	> 10000	–	–	–	–
COc1c(F)ccc(-c2c(C)nc(N3CCC(C)(N)CC3)nc2C(N)=O)c1Cl (atropisomer, axis not shown; (M)) [Compound 115, (4M)-2-(4-amino-4-methylpiperidin-1-yl)-5-(2-chloro-4-fluoro-3-methoxyphenyl)-6-methylpyrimidine-4-carboxamide]	570	–	–	–	–
CC1(N)CCN(c2nc(N)c(-c3cccc(Cl)c3Cl)c(C(=O)NN)n2)CC1 [Compound 21, 6-Amino-2-(4-amino-4-methyl-piperidin-1-yl)-5-(2,3-dichlorophenyl)-pyrimidine-4-carboxylic Acid Hydrazide]	1600	–	–	–	–
C[C@]1(N)CCCN(c2nc(N)c(-c3cccc(Cl)c3Cl)c(C(N)=O)n2)CC1 (atropisomer, axis not shown; (P)) [Compound 108, (5P)-6-amino-2-[(4S)-4-amino-4-methylazepan-1-yl]-5-(2,3-dichlorophenyl)-pyrimidine-4-carboxamide]	1300	–	–	–	–
